Experimental data: patent US12357607B2, “Compositions and methods for intravenous administration of 2-bromo-1-(3,3-dinitroazetidin-1-yl)ethanone” (EpicentRx, Inc., priority 2016, dated 2025)

Assay: Phase 1 dose-escalation study: intravenous aqueous solution of ABDNAZ; safety, tolerability, adverse events
Type: in vivo, human
Procedure: An aqueous solution of ABDNAZ was intravenously administered to twenty-five human patients as part of a Phase I clinical study. The aqueous solution contained ABDNAZ (2 mg/mL), polyethylene glycol having a number average molecular weight of 400 g/mol (6% w/w), dimethylacetamide (3% w/w), and water for injection. Patients were administered a volume of the aqueous solution of ABDNAZ sufficient to deliver a dose of ABDNAZ in the amount of 10 mg/m^2, 16.7 mg/m^2, 24.6 mg/m^2, 33 mg/m^2, 55 mg/m^2, or 83 mg/m^2. Pain at the injection site due to administration of the aqueous solution of ABDNAZ was experienced by 84% of patients. […] Thereafter, peripheral intravenous delivery in the antecubital or forearm area was used and a longer duration of time was used to perform the infusion (e.g., ranging from 2 hours to 8 hours, while administering at a rate of 3.5 mL/hour that could be adjusted up or down in 0.5 mL/hour increments based on patients' ability to tolerate the infusion).
In this open-label, human, dose-escalation phase 1 study, a 3+3 dose-escalation design was used to assess safety, tolerability, and pharmacokinetics of ABDNAZ. Patients were enrolled from the University of California-San Diego Moores Cancer Center, La Jolla, CA, USA, and the Sarah Cannon Research Institute, Nashville, TN, USA. […] Previous antineoplastic therapies had to have been discontinued at least 6 weeks before intervention start, and patients could show no residual side-effects of previous therapies. Patients were required to practice effective contraception while receiving ABDNAZ. All patients had evaluable disease. Key exclusion criteria included hypoalbuminaemia (albumin <30 g/L), active brain metastases (although patients with stable brain metastases were eligible), pregnancy or breast feeding, any other clinically significant illness or psychiatric disorder that could affect compliance or endpoint assessments, and concurrent use of any other investigational drugs.
Screening assessments were done at the clinical site less than 16 days before treatment initiation and included an electrocardiogram, urinalysis, Modified Borg Dyspnea Assessment, pulse oximetry, and radiographic tumour measurement. A medical history, physical examination, pregnancy test, performance status, complete blood count, a comprehensive serum chemistry, and urinalysis were done within 16 days of the first dosing.
The protocol was reviewed and approved by the investigational review boards at the Moores Cancer Center and the Sarah Cannon Research Institute. All procedures were performed in accordance with the principles established by the Helsinki Declaration. Patients gave written informed consent for all clinical and research aspects of the study before enrolment, which was done according to national and institutional guidelines.
An aqueous solution of ABDNAZ was intravenously administered to patients. The aqueous solution contained ABDNAZ (2 mg/mL), polyethylene glycol having a number average molecular weight of 400 g/mol (6% w/w), dimethylacetamide (3% w/w), and water for injection. Patients were administered a volume of the aqueous solution of ABDNAZ sufficient to deliver a dose of ABDNAZ in the amount of 10 mg/m^2, 16.7 mg/m^2, 24.6 mg/m^2, 33 mg/m^2, 55 mg/m^2, or 83 mg/m^2. Three patients were given a starting dose of 10 mg/m^2 of ABDNAZ before dose escalation (to 16.7 mg/m^2, 24.6 mg/m^2, 33 mg/m^2, 55 mg/m and 83 mg/m^2), with at least three patients per dose cohort, allowing a 2-week observation period before dose escalation. […] Thereafter, peripheral intravenous delivery in the antecubital or forearm area was used and a longer duration of time was used to perform the infusion (e.g., ranging from 2 hours to 8 hours, while administering at a rate of 3.5 mL/hour that could be adjusted up or down in 0.5 mL/hour increments based on patients' ability to tolerate the infusion). […]

[1] = 10 mg/m^2 dose (n = 6), number of patients
[2] = 16.7 mg/m^2 dose (n = 3), number of patients
[3] = 24.6 mg/m^2 dose (n = 3), number of patients
[4] = 33 mg/m^2 dose (n = 4), number of patients
[5] = 55 mg/m^2 dose (n = 3), number of patients
[6] = 83 mg/m^2 dose (n = 6), number of patients
[7] = twenty-five patients, all dose cohorts
[8] = twenty-five patients, all dose cohorts 10-83 mg/m^2

O=C(CBr)N1CC([N+](=O)[O-])([N+](=O)[O-])C1 [ABDNAZ, 2-bromo-1-(3,3-dinitroazetidin-1-yl)ethanone]
(75%): Infusion-site pain, Grade 2, share of patients (33 mg/m^2 dose (n = 4))
32%: Arm swelling or oedema, share of patients [7]
seven: Vein hardening, number of patients [7]
(17%): Dyspnoea or wheezing, Grade 1-2, share of patients (10 mg/m^2 dose (n = 6))
(83%): Vein hardening, Grade 1-2, share of patients (83 mg/m^2 dose (n = 6))
(25%): Arm swelling or oedema, Grade 2, share of patients (33 mg/m^2 dose (n = 4)) | Infusion-site pain, Grade 3, share of patients (33 mg/m^2 dose (n = 4)) | Vein hardening, Grade 2, share of patients (33 mg/m^2 dose (n = 4))
83 mg/m^2: Maximally feasible dose (limited by time constraints related to management of infusion pain)
Three: Patients needing dose reduction to 33 mg/m^2 because of localized infusion pain (highest dose cohort (83 mg/m^2))
(50%): Dyspnoea or wheezing, Grade 1-2, share of patients (83 mg/m^2 dose (n = 6))
(33%): Arm swelling or oedema, Grade 1-2, share of patients (16.7 mg/m^2 dose (n = 3)) | Infusion-site pain, Grade 1-2, share of patients (24.6 mg/m^2 dose (n = 3)) | Dyspnoea or wheezing, Grade 1-2, share of patients (55 mg/m^2 dose (n = 3)) | Vein hardening, Grade 1-2, share of patients (55 mg/m^2 dose (n = 3)) | Mouth tingling or burning, Grade 1-2, share of patients (83 mg/m^2 dose (n = 6))
(100%): Infusion-site pain, Grade 1-2, share of patients (16.7 mg/m^2 dose (n = 3)) | Infusion-site pain, Grade 1-2, share of patients (55 mg/m^2 dose (n = 3)) | Infusion-site pain, Grade 1-2, share of patients (83 mg/m^2 dose (n = 6))
one: Patients needing dose reduction to 33 mg/m^2 because of localized infusion pain (penultimate dose cohort (55 mg/m^2))
(67%): Infusion-site pain, Grade 1-2, share of patients (10 mg/m^2 dose (n = 6)) | Arm swelling or oedema, Grade 1-2, share of patients (55 mg/m^2 dose (n = 3)) | Mouth tingling or burning, Grade 1-2, share of patients (55 mg/m^2 dose (n = 3)) | Arm swelling or oedema, Grade 1-2, share of patients (83 mg/m^2 dose (n = 6))
84%: Pain at the injection site, share of patients [8]
21 patients: Pain at the injection site, number of patients [8]
0: Arm swelling or oedema, Grade 1-2 [1] | Arm swelling or oedema, Grade 3 [1] | Dyspnoea or wheezing, Grade 3 [1] | Infusion-site pain, Grade 3 [1] | Mouth tingling or burning, Grade 1-2 [1] | Mouth tingling or burning, Grade 3 [1] | Vein hardening, Grade 1-2 [1] | Vein hardening, Grade 3 [1] | Arm swelling or oedema, Grade 3 [2] | Dyspnoea or wheezing, Grade 1-2 [2] | Dyspnoea or wheezing, Grade 3 [2] | Infusion-site pain, Grade 3 [2] | Mouth tingling or burning, Grade 1-2 [2] | Mouth tingling or burning, Grade 3 [2] | Vein hardening, Grade 1-2 [2] | Vein hardening, Grade 3 [2] | Arm swelling or oedema, Grade 1-2 [3] | Arm swelling or oedema, Grade 3 [3] | Dyspnoea or wheezing, Grade 1-2 [3] | Dyspnoea or wheezing, Grade 3 [3] | Infusion-site pain, Grade 3 [3] | Mouth tingling or burning, Grade 1-2 [3] | Mouth tingling or burning, Grade 3 [3] | Vein hardening, Grade 1-2 [3] | Vein hardening, Grade 3 [3] | Arm swelling or oedema, Grade 3 [4] | Dyspnoea or wheezing, Grade 2 [4] | Dyspnoea or wheezing, Grade 3 [4] | Mouth tingling or burning, Grade 2 [4] | Mouth tingling or burning, Grade 3 [4] | Vein hardening, Grade 3 [4] | Arm swelling or oedema, Grade 3 [5] | Dyspnoea or wheezing, Grade 3 [5] | Infusion-site pain, Grade 3 [5] | Mouth tingling or burning, Grade 3 [5] | Vein hardening, Grade 3 [5] | Arm swelling or oedema, Grade 3 [6] | Dyspnoea or wheezing, Grade 3 [6] | Infusion-site pain, Grade 3 [6] | Mouth tingling or burning, Grade 3 [6] | Vein hardening, Grade 3 [6]
1: Dyspnoea or wheezing, Grade 1-2 [1] | Arm swelling or oedema, Grade 1-2 [2] | Infusion-site pain, Grade 1-2 [3] | Arm swelling or oedema, Grade 2 [4] | Infusion-site pain, Grade 3 [4] | Vein hardening, Grade 2 [4] | Dyspnoea or wheezing, Grade 1-2 [5] | Vein hardening, Grade 1-2 [5]
3: Infusion-site pain, Grade 1-2 [2] | Infusion-site pain, Grade 2 [4] | Infusion-site pain, Grade 1-2 [5] | Dyspnoea or wheezing, Grade 1-2 [6]
28%: Vein hardening, share of patients [7]
6: Infusion-site pain, Grade 1-2 [6]
5: Vein hardening, Grade 1-2 [6]
eight: Arm swelling or oedema, number of patients [7]
4: Infusion-site pain, Grade 1-2 [1] | Arm swelling or oedema, Grade 1-2 [6]
2: Arm swelling or oedema, Grade 1-2 [5] | Mouth tingling or burning, Grade 1-2 [5] | Mouth tingling or burning, Grade 1-2 [6]
mostly grade 1 and grade 2: Pain at the injection site, grade (all dose cohorts 10-83 mg/m^2)
